Test system: Ba/F3-INSR xenograft
Experiment: Xenograft tumor growth inhibition
Type: in vivo, mice
Description: Six week old female NCr nu/nu mice (for SNU-16) or CB-17 SCID female mice (for NCI-H716 and BaF3 models) were purchased from Taconic Farms (Germantown, NY) and allowed to acclimate for greater than 2 weeks. Mice were housed in sterile micro isolator cages with 5 mice per cage and were received food and water ad libitum. Tumor cells were suspended in 50% Matrigel (lot# A9618-BD, Bioscience) and sterile Hanks Balanced Salt Solution (HBSS) for the NCI-H716 model or in HBSS alone for SNU-16. Each mouse was implanted subcutaneously with 5x10^6 cells (SNU-16) or 8x10^6 cells (NCI-H716) or 2x10^6 cells (BaF3) to the upper right flank area. Tumor measurements and body weights were collected two to three times per week with electronic calipers and balance. Tumor weight (mg) was calculated from the equation: length x (width)^2/2. This formula was used to calculate tumor volume assuming unit density 1 mg = 1 mm^3. Treatment was initiated when tumor burden was between 100–200 mgs. Percent inhibition or tumor growth inhibition (TGI) was calculated using the following formula: 100-[mean tumor value of treated / mean tumor value of control] x 100.
Plasma and tumor samples were collected 4 hours post single dose. […] Dosing volume for all groups was 10 mL/kg or 0.1 mL/10 g body weight.

Structure (SMILES): CC[C@]1(O)C[C@@H]2CN(CCc3c([nH]c4ccccc34)[C@@](C(=O)OC)(c3cc4c(cc3OC)N(C)[C@H]3[C@@](O)(C(=O)OC)[C@H](OC(C)=O)[C@]5(CC)C=CCN6CC[C@]43[C@@H]65)C2)C1 [Vinblastine]
- T/C (10 mg/kg IV Q5Dx2, Day 10): 100.48
- Tumor Weights (mg), MEAN (10 mg/kg IV Q5Dx2, Day 10): 230.70 mg
- T/C (10 mg/kg IV Q5Dx2, Day 13): 42.10
- Tumor Weights (mg), MEAN (10 mg/kg IV Q5Dx2, Day 13): 256.70 mg
- T/C (10 mg/kg IV Q5Dx2, Day 15): 37.24
- Tumor Weights (mg), MEAN (10 mg/kg IV Q5Dx2, Day 15): 325.90 mg
- T/C (10 mg/kg IV Q5Dx2, Day 17): 11.60
- Tumor Weights (mg), MEAN (10 mg/kg IV Q5Dx2, Day 17): 196.60 mg
- T/C (10 mg/kg IV Q5Dx2, Day 20): 2.84
- Tumor Weights (mg), MEAN (10 mg/kg IV Q5Dx2, Day 20): 69.22 mg

From paper PMC5023172, “Preclinical Activity of ARQ 087, a Novel Inhibitor Targeting FGFR Dysregulation” (PLoS ONE, 2016)
